Reference: ChEMBL document CHEMBL1132184, “Two-stage method for protein-ligand docking” (J Med Chem, 1999)

Target: Prothrombin (Homo sapiens, UniProt P00734)
Assay: Binding affinity against thrombin

Ki: 0.27 nM
SMILES: N=C(N)C[C@H]1CC[C@@H](NC(=O)[C@@H]2CCCN2C(=O)[C@@H](Cc2ccccc2)NS(=O)(=O)Cc2ccccc2)CC1
